Consider eight compounds from patent EP1184374A1, “Carboxamide derivatives of pyrrolidine, piperidine and hexahydroazepine for the treatment of thrombosis disorders” (ORTHO PHARMACEUTICAL CORPORATION, priority 1996, dated 1997).

Structures are written as SMILES. Several values for one entry are separate records, joined by “and”; a condition that tells them apart may be missing. Identical values can stand only once.

One test concerns the target GPIIb/IIIa (Homo sapiens, UniProt P05106+P08514). In words: In vitro solid phase purified glycoprotein IIb/IIIa binding assay (biotinylated fibrinogen binding). The settings on record: for inhibition at 50 µM: read-out: Fibrinogen Binding % Inh. (50 µM). As for the experimental part:
IN VITRO SOLID PHASE PURIFIED GLYCOPROTEIN IIB/IIIA BINDING ASSAY.
The plate is covered and incubated overnight at 4°C. The GPIIb/IIa solution is discarded and 150 µl of 5% BSA is added and incubated at RT for 1-3 h. The plate is washed extensively with modified Tyrodes buffer. Biotinylated fibrinogen (25 µl/well) at 2 x final concentration is added to the wells that contain the test compounds (25 µl/well). The plate is covered and incubated at RT for 2-4 h. Twenty minutes prior to incubation completion, one drop of Reagent A (Vecta Stain ABC Horse Radish Peroxidase kit, Vector Laboratories, Inc.) and one drop Reagent B are added with mixing to 5 mL modified Tyrodes buffer mix and let stand. The ligand solution is discarded and the plate washed (5 x 200 µl/well) with modified Tyrodes buffer. Vecta Stain HRP-Biotin-Avidin reagent (50 µl/well, as prepared above) is added and incubated at RT for 15 min. The Vecta Stain solution is discarded and the wells washed (5 x 200 µl/well) with modified Tyrodes buffer. Developing buffer (10 mL of 50 mM citrate/phosphate buffer @ pH 5.3, 6 mg o-phenylenediamine, 6 µl 30% H2O2; 50 µl/well) is added and incubated at RT for 3-5 min, and then 2N H2SO4 (50 µl/well) is added. The absorbance is read at 490 nm.

Another test has as its system gel-filtered platelets. In words: In vitro inhibition of thrombin-induced gel-filtered platelet aggregation. In kind it is cell-based. The settings on record: Homo sapiens; for inhibition at 50 µM: read-out: Platelet Aggregation % Inh. (50µM). As for the experimental part: IN VITRO INHIBITION OF THROMBIN-INDUCED GEL-FILTERED PLATELET AGGREGATION ASSAY.
The percentage of platelet aggregation is calculated as an increase in light transmission of compound-treated platelet concentrate vs. control-treated platelet concentrate. Human blood is obtained from drug free, normal donors into tubes containing 0.13M sodium citrate. Platelet rich plasma (PRP) is collected by centrifugation of whole blood at 200 x g for 10 min at 25°C. The PRP (5 mL) is gel filtered through Sepharose 2B (bed volume 50 mL), and the platelet count is adjusted to 2x10^7 platelets per sample. The following constituents are added to a siliconized cuvette: concentrated platelet filtrate and Tyrode's buffer (0.14M NaCl, 0.0027MKCl, 0.012M NaHCO3, 0.76 mM Na2HPO4, 0.0055M glucose, 2 mg/mL BSA and 5.0mM HEPES @ pH 7.4) in an amount equal to 350 µl, 50 µl of 20 mM calcium and 50 µl of the test compound. Aggregation is monitored in a BIODATA aggregometer for the 3 min following the addition of agonist (thrombin 50 µl of 1 unit/mL).

Test [1] has as its system collagen- or ADP-induced ex vivo platelet aggregation. The test is described as follows: Ex vivo dog study (platelet aggregation, hemodynamics, bleeding time, coagulation, cell counts). In kind it is in vivo, dogs. As for the experimental part:
Adult mongrel dogs (8-13 kg) were anesthetized with sodium pentobarbital (35 mg/kg, i.v.) and artificially respired. Arterial blood pressure and heart rate were measured using a Millar catheter-tip pressure transducer inserted in a femoral artery. Another Millar transducer was placed in the left ventricle (LV) via a carotid artery to measure LV end diastolic pressure and indices of myocardial contractility. A lead II electrocardiogram was recorded from limb electrodes. Catheters were placed in a femoral artery and vein to sample blood and infuse drugs, respectively. Responses were continuously monitored using a Modular Instruments data aquisition system.
Arterial blood samples (5-9 ml) were withdrawn into tubes containing 3.8% sodium citrate to prepare platelet rich plasma (PRP) and to determine effects on coagulation parameters: prothrombin time (PT) and activated partial thromboplastin time (APTT). Separate blood samples (1.5 ml) were withdrawn in EDTA to determine hematocrit and cell counts (platelets, RBC's and white cells). Template bleeding times were obtained from the buccal surface using a symplate incision devise and Whatman filter paper.
Aggregation of PRP was performed using a BioData aggregometer. Aggregation of whole blood used a Chronolog impedance aggregometer. PT and APTT were determined on either a BioData or ACL 3000+ coagulation analyser. Cells were counted with a Sysmex K-1000.
Compounds were solubilized in a small volume of dimethylformamide (DMF) and diluted with saline to a final concentration of 10% DMF. Compounds were administered by the intravenous route with a Harvard infusion pump. Doses was administered over a 15 min interval at a constant rate of 0.33 ml/min. Data were obtained after each dose and in 30 min intervals following the end of drug administration. Oral doses were administered as aqueous solutions via syringe.

For a further test, the system named is thrombus formation. The test is described as follows: Canine arteriovenous shunt model of thrombosis. In kind it is in vivo. As for the experimental part: For instance, compound 16 inhibits thrombus formation at 10, 30, and 100 µg/kg/min cumulative doses by iv infusion (75%, 37%, 12% of thrombus weight vs. vehicle control, respectively). Compound 18 inhibits thrombus formation at 3, 10, and 30 µg/kg/min cumulative doses by iv infusion (82%, 41%, 12% of thrombus weight vs. vehicle control, respectively).

The next test relates to platelet aggregation. The settings on record: L. Alig, J. Med. Chem. 1992, 35, 4393; read-out: IC50 against in vitro thrombin-induced platelet aggregation; cited from earlier work.
Where [2] appears, read: 10 µg/kg/min cumulative dose by iv infusion.
Setting [3] is: 30 µg/kg/min cumulative dose by iv infusion.

Chain of GPIIb/IIIa (P08514 32-887 limits assumed): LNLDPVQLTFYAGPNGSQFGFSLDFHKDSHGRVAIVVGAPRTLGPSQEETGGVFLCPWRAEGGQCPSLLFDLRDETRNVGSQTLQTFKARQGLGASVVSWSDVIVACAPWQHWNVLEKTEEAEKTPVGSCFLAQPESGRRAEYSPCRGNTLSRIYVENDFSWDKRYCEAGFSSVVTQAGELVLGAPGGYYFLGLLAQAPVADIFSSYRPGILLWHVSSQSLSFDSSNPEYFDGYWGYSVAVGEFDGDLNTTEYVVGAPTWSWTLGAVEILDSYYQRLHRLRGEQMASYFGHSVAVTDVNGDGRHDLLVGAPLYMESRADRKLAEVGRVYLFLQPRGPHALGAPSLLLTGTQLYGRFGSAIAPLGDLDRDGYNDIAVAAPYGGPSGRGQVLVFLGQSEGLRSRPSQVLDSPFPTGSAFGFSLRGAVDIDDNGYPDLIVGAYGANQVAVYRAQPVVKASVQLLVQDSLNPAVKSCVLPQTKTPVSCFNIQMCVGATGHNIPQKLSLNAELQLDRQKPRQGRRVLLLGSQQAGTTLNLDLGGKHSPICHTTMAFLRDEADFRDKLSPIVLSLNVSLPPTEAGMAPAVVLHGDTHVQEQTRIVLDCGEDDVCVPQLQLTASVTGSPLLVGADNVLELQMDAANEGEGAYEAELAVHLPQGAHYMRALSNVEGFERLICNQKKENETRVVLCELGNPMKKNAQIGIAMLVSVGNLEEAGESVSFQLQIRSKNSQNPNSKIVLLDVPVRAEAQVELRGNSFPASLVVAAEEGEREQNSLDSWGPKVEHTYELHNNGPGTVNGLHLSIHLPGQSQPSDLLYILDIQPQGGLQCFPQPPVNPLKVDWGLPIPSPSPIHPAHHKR
Chain of GPIIb/IIIa (P08514 891-1039 partner limits assumed): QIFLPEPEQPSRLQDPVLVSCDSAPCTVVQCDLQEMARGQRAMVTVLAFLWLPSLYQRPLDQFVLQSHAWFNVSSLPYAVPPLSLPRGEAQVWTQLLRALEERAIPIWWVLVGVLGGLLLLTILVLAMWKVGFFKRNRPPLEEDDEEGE
Chain of GPIIb/IIIa (P05106 27-788): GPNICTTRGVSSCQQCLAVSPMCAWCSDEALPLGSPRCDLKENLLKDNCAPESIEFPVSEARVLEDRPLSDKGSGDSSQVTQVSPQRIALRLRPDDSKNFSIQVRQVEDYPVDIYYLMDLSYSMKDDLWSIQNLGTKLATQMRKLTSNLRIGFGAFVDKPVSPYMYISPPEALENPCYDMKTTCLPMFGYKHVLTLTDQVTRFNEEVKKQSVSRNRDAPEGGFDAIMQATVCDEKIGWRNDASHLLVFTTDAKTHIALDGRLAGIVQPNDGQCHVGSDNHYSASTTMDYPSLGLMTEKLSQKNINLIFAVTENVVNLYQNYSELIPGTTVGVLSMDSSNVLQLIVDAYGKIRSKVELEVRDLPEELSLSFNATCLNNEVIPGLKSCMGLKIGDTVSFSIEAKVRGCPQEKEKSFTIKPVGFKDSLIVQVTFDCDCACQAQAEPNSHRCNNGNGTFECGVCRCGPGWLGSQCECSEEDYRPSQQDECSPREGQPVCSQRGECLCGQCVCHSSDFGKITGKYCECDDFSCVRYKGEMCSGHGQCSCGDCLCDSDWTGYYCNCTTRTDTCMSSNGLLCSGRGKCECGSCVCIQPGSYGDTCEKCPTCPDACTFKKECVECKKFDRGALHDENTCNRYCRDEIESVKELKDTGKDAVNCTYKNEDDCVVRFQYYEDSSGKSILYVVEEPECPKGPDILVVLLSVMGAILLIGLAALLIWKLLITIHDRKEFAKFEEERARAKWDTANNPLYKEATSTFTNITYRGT

For orientation: IC50 means the concentration that inhibits the measured activity by half. In the case of `O=C(O)CC(NC(=O)C1CCCN(C(=O)CCC2CCNCC2)C1)c1ccc2c(c1)OCO2` [Compound 16, N-3-(4-Piperidinepropionyl)-R-(-)-nipecotyl-[(S)-3-amino-3-(3,4-methylenedioxyphenyl)]propionic acid], the IC50 at GPIIb/IIIa turned out to be 0.5 nM; in the test on gel-filtered platelets it was 28 nM. For the same compound, the results for the inhibition at 50 µM on GPIIb/IIIa and in the test with gel-filtered platelets were 100% and 94%, respectively. Further, the “Duration of >50% inhibition of collagen- or ADP-induced ex vivo platelet aggregation” value is 60 min in test [1] (intravenous dosing 0.1 mpk), 60 min in test [1] (oral dosing 1 mpk) and >180 min in test [1] (oral dosing 3 mpk). Also, the “% of thrombus weight vs. vehicle control” value in the test on thrombus formation (setting [2]) was 75%; with thrombus formation (setting [3]), 37%; in the test with thrombus formation (100 µg/kg/min cumulative dose by iv infusion), 12%.

In the case of `CN(CC(=O)c1ccc(OCC(=O)O)c(OCC(=O)O)c1)C(=O)c1ccc(C(=N)N)cc1` [Ro-438857], the IC50 in the test on platelet aggregation was 94 nM.

`COc1cc(NC(=O)N[C@@H](CNC(=O)[C@@H]2CCCN(C(=O)CCC3CCNCC3)C2)C(=O)O)cc(OC)c1` [Compound 26, N-3-(4-Piperidinepropionyl)-R-(-)nipecotyl-[(S)-2-(3,5-dimethoxyanllino)carbonylamino-3-amino]propionic acid]: the inhibition at 50 µM at GPIIb/IIIa was 100%. Moreover, in the test with gel-filtered platelets, the IC50 was determined as 16 nM and the inhibition at 50 µM stood at 97%. The “Duration of >50% inhibition of collagen-induced ex vivo platelet aggregation” value in test [1] (oral dosing 3 mpk) amounted to 60 min.

For the compound `CN1CCN(CCC(=O)N2CCCC(C(=O)NC(CC(=O)O)c3cnc4ccccc4c3)C2)CC1` (stereo not drawn) [Compound 15, N-3-(4-N-Methyl-piperazinepropionyl)-nipecotyl-[3-amino-3-(3-quinolinyl)]propionic acid], the IC50 on GPIIb/IIIa is 9.1 nM; in the test on gel-filtered platelets, 1900 nM. Moreover, the inhibition at 50 µM is 100% at GPIIb/IIIa and 92.2% in the test with gel-filtered platelets. For the same compound, the “Duration of >50% inhibition of collagen- or ADP-induced ex vivo platelet aggregation” value is listed as 30 min in test [1] (intravenous dosing 1 mpk) and 120 min in test [1] (oral dosing 10 mpk).

With `O=C(O)C[C@H](NC(=O)[C@@H]1CCCN(C(=O)CCC2CCNCC2)C1)c1cnc2ccccc2c1` [Compound 18, N-3-(4-Piperidinepropionyl)-R-(-)-nipecotyl-[(S)-3-amino-3-(3-quinolinyl)]propionic acid], the inhibition at 50 µM on GPIIb/IIIa and with gel-filtered platelets was 100% throughout. The compound further showed an IC50 in the test with gel-filtered platelets of 19 nM. Further, the “Duration of >50% inhibition of collagen- or ADP-induced ex vivo platelet aggregation” value in test [1] (intravenous dosing 0.1 mpk) worked out at 30 min; in test [1] (oral dosing 1 mpk), 150 min. The “% of thrombus weight vs. vehicle control” value worked out at 82% in the test with thrombus formation (3 µg/kg/min cumulative dose by iv infusion), 41% in the test on thrombus formation (setting [2]) and 12% with thrombus formation (setting [3]).

`COc1cccc(NC(=O)N[C@@H](CNC(=O)[C@@H]2CCCN(C(=O)CCC3CCNCC3)C2)C(=O)O)c1` [Compound 22, N-3-(4-Piperidinepropionyl)-R-(-)nipecotyl-[(S)-2-(3-methoxyanilino)carbonylamino-3-amino]propionic acid]: the inhibition at 50 µM on GPIIb/IIIa stood at 100%; in the test on gel-filtered platelets it was 94%. In addition, the 50% inhibitory concentration (IC50) in the test with gel-filtered platelets is 46 nM. Besides, the “Duration of >50% inhibition of collagen-induced ex vivo platelet aggregation” value in test [1] (intravenous dosing 0.3 mpk) was found to be 180 min; in test [1] (oral dosing 3 mpk), 60 min.

Take `Cc1ccc([C@H](CC(=O)O)NC(=O)[C@@H]2CCCN(C(=O)CCC3CCNCC3)C2)cn1` [Compound 31, N-3-(4-Piperidinepropionyl)-R-(-)nipecotyl-[(S)-3-amino-3-(6-methyl-3-pyridyl)]propionic acid]: the inhibition at 50 µM on GPIIb/IIIa and with gel-filtered platelets was 100% throughout. This compound also registered a concentration for half-maximal inhibition (IC50) in the test on gel-filtered platelets of 45 nM. Moreover, the “Duration of >50% inhibition of collagen-induced ex vivo platelet aggregation” value is 120 min and 60 min in test [1] (intravenous dosing 0.3 mpk, 0.3 mg/kg); >180 min and 180 min in test [1] (oral dosing 3 mpk, 3 mg/kg).

`O=C(N[C@@H](CNC(=O)[C@@H]1CCCN(C(=O)CCC2CCNCC2)C1)C(=O)O)OCc1cccc(Cl)c1` [Compound 24, N-3-(4-Piperidinepropionyl)-R-(-)nipecotyl-[(S)-2-(3-chlorobenzyloxy)carbonylamino-3-amino]propionic acid]: the figures for the IC50 on GPIIb/IIIa and in the test with gel-filtered platelets were 0.4 nM and 18 nM, respectively. For the same compound, the inhibition at 50 µM on GPIIb/IIIa and with gel-filtered platelets was 100% in each case. The results for the “Duration of >50% inhibition of collagen-induced ex vivo platelet aggregation” value in test [1] (intravenous dosing 0.3 mpk) and in test [1] (oral dosing 3 mpk) were 90 min and 120 min, respectively.
